Reference: US20220331274A1, “METHODS OF TREATING CANCER” (Inspirna, Inc., priority 2019, published 2022)

Columns and labels:
CYP2J2 = CYP2J2 (Homo sapiens, UniProt P51589); test: in vitro CYP metabolism; type: in vitro ADME
[1] = oral PK study in male Beagle dogs; type: in vivo; settings: dog, plasma
OAT1 = OAT1 (Homo sapiens, UniProt Q4U2R8); test: transporter inhibition in vitro; type: in vitro ADME
tumor growth = tumor growth studies, minimum efficacious dose and exposure; type: in vivo
BCRP = BCRP (Homo sapiens, UniProt Q9UNQ0); test: efflux transporter inhibition in vitro; type: in vitro ADME; settings: read-out: inhibition of BCRP transport
melanoma xenograft = melanoma xenograft study in non-obese diabetic-severe combined immunodeficiency mice; type: in vivo; settings: 25 mg/kg
[2] = neurobehavioral functional observation battery (FOB) and respiratory evaluations in rats; type: in vivo
ApoE [3] = test: ApoE gene expression induction in cancer cells; type: cell-based; settings: compared to control cells
2D6 = 2D6 (Homo sapiens, UniProt P10635); test: in vitro CYP450 inhibition; type: in vitro ADME
[4] = safety pharmacology, ECG and heart rate in dogs; type: in vivo
P-glucoprotein (P-gp) = P-glucoprotein (P-gp) (Homo sapiens, UniProt P08183); test: efflux transporter inhibition in vitro; type: in vitro ADME
Chain of P-glucoprotein (P-gp) (P08183 whole entry): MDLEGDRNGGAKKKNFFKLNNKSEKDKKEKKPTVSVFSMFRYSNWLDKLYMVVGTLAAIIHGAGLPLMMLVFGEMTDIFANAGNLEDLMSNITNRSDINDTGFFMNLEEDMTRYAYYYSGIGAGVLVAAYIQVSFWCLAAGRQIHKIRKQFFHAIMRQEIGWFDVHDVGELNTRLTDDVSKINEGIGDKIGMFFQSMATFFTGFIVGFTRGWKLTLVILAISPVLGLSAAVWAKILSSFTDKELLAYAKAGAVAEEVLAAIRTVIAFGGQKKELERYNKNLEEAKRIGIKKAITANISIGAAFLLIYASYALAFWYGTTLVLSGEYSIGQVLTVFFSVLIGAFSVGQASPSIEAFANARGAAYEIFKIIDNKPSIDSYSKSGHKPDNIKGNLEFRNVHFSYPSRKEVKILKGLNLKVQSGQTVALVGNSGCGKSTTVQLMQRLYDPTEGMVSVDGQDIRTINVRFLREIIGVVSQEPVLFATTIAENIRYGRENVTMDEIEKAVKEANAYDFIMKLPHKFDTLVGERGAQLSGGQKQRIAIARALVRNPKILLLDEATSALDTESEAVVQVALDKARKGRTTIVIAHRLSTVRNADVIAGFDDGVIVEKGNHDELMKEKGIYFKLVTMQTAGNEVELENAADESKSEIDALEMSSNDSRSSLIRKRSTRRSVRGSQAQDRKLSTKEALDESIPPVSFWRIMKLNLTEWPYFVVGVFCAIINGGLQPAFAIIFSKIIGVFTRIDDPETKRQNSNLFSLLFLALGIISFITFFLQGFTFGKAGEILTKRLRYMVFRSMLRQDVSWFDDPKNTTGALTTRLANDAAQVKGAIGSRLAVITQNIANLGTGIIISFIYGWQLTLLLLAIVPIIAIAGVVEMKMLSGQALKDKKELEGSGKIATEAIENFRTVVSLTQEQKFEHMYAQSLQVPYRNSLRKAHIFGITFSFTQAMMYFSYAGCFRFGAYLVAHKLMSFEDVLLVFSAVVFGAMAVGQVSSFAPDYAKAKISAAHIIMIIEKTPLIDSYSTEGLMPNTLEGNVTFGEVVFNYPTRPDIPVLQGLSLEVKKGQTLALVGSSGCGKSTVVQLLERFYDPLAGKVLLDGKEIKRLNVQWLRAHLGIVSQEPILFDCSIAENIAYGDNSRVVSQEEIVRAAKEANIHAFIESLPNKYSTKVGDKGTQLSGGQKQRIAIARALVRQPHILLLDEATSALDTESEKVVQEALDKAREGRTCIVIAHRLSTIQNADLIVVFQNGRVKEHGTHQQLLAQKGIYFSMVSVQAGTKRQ

CYP3A4 = CYP3A4 (Homo sapiens, UniProt P08684); test: in vitro CYP metabolism; type: in vitro ADME
Chain of CYP3A4 (P08684 whole entry): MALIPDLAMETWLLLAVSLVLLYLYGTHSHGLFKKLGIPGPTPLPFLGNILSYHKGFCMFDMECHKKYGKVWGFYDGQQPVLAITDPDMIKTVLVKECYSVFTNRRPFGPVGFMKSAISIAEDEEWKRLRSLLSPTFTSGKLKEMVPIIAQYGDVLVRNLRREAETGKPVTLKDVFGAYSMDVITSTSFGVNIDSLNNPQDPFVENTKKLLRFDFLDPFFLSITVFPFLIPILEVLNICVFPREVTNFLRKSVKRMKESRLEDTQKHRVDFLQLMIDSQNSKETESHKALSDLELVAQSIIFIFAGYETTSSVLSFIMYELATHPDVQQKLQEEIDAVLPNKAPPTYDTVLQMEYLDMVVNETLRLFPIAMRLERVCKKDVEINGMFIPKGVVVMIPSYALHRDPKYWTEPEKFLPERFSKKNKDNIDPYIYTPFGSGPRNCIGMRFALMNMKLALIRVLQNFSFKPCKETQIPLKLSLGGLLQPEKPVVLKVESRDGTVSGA

[5] = Example 1: adverse event profile of full and reduced regimens with docetaxel; type: in vivo
Procedure: Protocol: Three subjects was administered Regimen 1 (Full): 35 mg/m^2 of docetaxel on days 1, 8, and 15 of every 28-day cycle and 80 mg of 2-[3-[(3R)-3-[[2-chloro-3-(trifluoromethyl)phenyl]methyl-(2,2-diphenylethyl)amino]butoxy]phenyl]acetic acid twice per day daily throughout treatment. Seven subjects was administered Regimen 2 (Reduced): 28 mg/m^2 of docetaxel on days 1, 8, and 15 of every 28-day cycle and 80 mg of 2-[3-[(3R)-3-[[2-chloro-3-(trifluoromethyl)phenyl]methyl-(2,2-diphenylethyl)amino]butoxy]phenyl]acetic acid twice per day for five continuous days followed by a 2 day rest period throughout treatment. One subject that was administered Regimen 2 received 35 mg/m^2 of docetaxel on days 1 and 80 mg of 2-[3-[(3R)-3-[[2-chloro-3-(trifluoromethyl)phenyl]methyl-(2,2-diphenylethyl)amino]butoxy]phenyl]acetic acid twice per day for the first seven days of treatment prior to switching to the reduced treatment schedule for the remainder of the 28-day cycle.

[6] = target: organic anion transporting polypeptide (OATP) 1B1 (Homo sapiens, UniProt Q9Y6L6); test: uptake transporter inhibition in vitro; type: in vitro ADME; settings: read-out: IC50 OATP1B1
Chain of organic anion transporting polypeptide (OATP) 1B1 (Q9Y6L6 whole entry): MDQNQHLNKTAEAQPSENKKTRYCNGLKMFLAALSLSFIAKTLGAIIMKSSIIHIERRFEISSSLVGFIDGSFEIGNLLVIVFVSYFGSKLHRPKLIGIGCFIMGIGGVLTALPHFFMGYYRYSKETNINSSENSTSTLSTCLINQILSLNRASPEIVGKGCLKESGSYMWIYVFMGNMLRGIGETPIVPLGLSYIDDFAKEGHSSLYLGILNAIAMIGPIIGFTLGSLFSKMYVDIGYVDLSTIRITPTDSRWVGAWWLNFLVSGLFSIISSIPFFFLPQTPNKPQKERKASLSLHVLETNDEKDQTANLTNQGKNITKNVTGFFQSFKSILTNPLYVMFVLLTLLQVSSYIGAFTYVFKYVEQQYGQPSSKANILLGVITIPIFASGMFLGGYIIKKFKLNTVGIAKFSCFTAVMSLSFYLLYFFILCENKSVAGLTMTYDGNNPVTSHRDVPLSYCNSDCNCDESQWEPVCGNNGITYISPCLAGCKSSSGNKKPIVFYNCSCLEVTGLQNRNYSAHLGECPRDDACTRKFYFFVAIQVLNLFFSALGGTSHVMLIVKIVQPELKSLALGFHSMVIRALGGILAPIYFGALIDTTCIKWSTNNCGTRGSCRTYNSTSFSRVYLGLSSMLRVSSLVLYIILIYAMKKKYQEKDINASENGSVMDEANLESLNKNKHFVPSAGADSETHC

endothelial cells = test: endothelial recruitment in vitro; type: cell-based
1A1 = 1A1 (Homo sapiens, UniProt P04798); test: in vitro CYP450 inhibition; type: in vitro ADME
CYP1A2 = test: CYP induction in primary cultures of cryopreserved hepatocytes; type: in vitro ADME
OCT2 = OCT2 (Homo sapiens, UniProt O15244); test: transporter inhibition in vitro; type: in vitro ADME
Chain of OCT2 (O15244 whole entry): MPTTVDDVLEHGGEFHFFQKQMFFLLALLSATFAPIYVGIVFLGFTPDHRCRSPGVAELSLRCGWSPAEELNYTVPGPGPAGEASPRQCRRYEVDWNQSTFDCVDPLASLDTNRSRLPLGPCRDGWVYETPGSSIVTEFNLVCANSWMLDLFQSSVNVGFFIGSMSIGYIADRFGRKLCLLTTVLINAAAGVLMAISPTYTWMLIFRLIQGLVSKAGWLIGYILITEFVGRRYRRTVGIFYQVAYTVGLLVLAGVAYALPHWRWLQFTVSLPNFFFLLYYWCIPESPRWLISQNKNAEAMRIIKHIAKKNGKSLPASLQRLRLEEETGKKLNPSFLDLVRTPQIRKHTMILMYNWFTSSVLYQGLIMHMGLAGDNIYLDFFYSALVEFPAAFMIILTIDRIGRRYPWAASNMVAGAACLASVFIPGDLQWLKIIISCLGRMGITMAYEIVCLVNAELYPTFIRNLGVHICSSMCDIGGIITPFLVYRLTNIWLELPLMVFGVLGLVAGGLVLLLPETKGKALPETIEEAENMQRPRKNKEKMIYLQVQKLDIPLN

OAT3 = OAT3 (Homo sapiens, UniProt Q8TCC7); test: transporter inhibition in vitro; type: in vitro ADME
Chain of OAT3 (Q8TCC7 whole entry): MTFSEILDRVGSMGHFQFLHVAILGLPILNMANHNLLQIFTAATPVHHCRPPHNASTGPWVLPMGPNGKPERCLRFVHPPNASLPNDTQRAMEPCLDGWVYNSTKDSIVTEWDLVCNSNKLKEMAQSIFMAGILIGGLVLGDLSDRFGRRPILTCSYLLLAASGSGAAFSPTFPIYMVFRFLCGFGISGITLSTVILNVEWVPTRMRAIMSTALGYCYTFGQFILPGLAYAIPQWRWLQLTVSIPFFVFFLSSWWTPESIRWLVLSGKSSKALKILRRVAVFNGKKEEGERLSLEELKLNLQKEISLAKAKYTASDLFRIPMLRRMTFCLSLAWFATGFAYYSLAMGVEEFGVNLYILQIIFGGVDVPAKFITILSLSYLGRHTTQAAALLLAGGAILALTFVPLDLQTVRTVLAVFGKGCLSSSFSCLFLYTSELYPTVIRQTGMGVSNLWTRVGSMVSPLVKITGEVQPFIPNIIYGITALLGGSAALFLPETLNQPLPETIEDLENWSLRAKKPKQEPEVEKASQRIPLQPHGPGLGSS

ApoE [7] = test: ApoE gene expression induction in hPBMCs; type: cell-based, human; settings: compared to control cells
[8] = single agent therapy in subjects, toxicities; type: in vivo
[9] = Regimen 1 (Full): 80 mg twice per day daily + docetaxel 35 mg/m^2, 3 cycles
[10] = Regimen 2 (Reduced): 80 mg twice per day 5 days then 2 day rest + docetaxel 28 mg/m^2, 20 cycles

Chain of CYP2J2 (P51589 whole entry): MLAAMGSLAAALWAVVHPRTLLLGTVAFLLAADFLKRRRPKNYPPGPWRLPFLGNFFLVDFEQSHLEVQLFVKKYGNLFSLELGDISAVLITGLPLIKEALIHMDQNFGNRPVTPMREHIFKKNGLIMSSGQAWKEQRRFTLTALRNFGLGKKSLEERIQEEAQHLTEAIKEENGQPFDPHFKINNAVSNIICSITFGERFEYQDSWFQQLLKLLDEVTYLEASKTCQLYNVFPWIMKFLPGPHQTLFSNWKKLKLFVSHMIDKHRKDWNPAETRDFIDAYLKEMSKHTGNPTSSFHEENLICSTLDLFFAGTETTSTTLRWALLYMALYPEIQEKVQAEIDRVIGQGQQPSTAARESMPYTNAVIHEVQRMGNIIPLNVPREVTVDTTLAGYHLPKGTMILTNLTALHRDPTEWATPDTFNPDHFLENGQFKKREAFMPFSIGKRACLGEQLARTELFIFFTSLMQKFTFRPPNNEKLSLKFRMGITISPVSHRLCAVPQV
Chain of OAT1 (Q4U2R8 whole entry): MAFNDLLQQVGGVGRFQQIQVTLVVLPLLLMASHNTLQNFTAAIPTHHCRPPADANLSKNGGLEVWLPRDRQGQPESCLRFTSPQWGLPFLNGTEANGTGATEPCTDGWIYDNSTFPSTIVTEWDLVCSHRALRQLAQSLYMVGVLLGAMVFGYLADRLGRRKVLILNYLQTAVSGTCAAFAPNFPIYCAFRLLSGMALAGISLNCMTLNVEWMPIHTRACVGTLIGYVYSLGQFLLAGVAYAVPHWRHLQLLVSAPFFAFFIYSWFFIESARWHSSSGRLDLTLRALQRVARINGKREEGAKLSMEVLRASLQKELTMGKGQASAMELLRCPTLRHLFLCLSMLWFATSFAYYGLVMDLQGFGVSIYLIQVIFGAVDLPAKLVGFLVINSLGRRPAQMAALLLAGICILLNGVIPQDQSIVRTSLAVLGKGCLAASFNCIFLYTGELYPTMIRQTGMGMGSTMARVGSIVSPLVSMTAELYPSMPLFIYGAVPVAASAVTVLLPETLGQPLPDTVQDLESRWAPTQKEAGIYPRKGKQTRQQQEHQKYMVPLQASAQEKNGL

SMILES: C[C@H](CCOc1cccc(CC(=O)O)c1)N(Cc1cccc(C(F)(F)F)c1Cl)CC(c1ccccc1)c1ccccc1 [2-[3-[(3R)-3-[[2-chloro-3-(trifluoromethyl)phenyl]methyl-(2,2-diphenylethyl)amino]butoxy]phenyl]acetic acid]
- substrate for CYP2J2 (CYP2J2): possibly
- Tmax ([1]; oral dose): 4 to 8 h
- bioavailability ([1]; po, depending on dose and formulation, read-out: mean % F): 18 to 30%
- half-life ([1]; po, read-out: mean apparent oral t½): 5 to 6.7 h
- inhibition at 50 µM (OAT1): < 50%
- exposures at minimum efficacious doses (tumor growth; 25-40 mg/kg/day PO): 10,000-50,000 ng-h/mL
- minimum efficacious doses (tumor growth; administered orally (PO)): 25 to 40 mg/kg/day
- inhibition at 5 µM (BCRP): 55%
- growth of the xenograft (melanoma xenograft): significantly inhibited growth of the xenograft
- neurobehavioral FOB or respiratory evaluations [2]: no adverse effects were noted
- ApoE gene expression induction (ApoE [3]): 3 fold
- inhibition of 2D6 (2D6): very weakly inhibited
- compound-related effects on qualitative ECG parameters (PR or QTc intervals or QRS duration) [4]: no
- mean heart rate ([4]; Day 1 post-dose interval, significant in females at 150 (stepped down to 100) mg/kg/day, not considered adverse): dose related decrease in mean heart rate
- inhibition of P-gp (P-glucoprotein (P-gp)): does not inhibit
- metabolism by CYP3A4 (CYP3A4): metabolized predominantly
- Decreased white blood cell count (All grades), AE/Cycle % [5, 9]: 67%
- Neutropenia (All grades), AE/Cycle % [5, 9]: 67%
- Decreased white blood cell count (All grades), number of AEs ([5]; Regimen 1 (Full): 80 mg twice per day daily + docetaxel 35 mg/m^2, 3 subjects, 3 cycles): 2
- Neutropenia (All grades), number of AEs ([5]; Regimen 1 (Full): 80 mg twice per day daily + docetaxel 35 mg/m^2 days 1, 8, 15 of 28-day cycle, 3 subjects, 3 cycles): 2
- Decreased white blood cell count (All grades), number of AEs ([5]; Regimen 2 (Reduced): 80 mg twice per day 5 days then 2 day rest + docetaxel 28 mg/m^2, 7 subjects, 20 cycles): 4
- Decreased white blood cell count (All grades), AE/Cycle % [5, 10]: 20%
- Neutropenia (All grades), AE/Cycle % [5, 10]: 5%
- Neutropenia (All grades), number of AEs ([5]; Regimen 2 (Reduced): 80 mg twice per day 5 days then 2 day rest + docetaxel 28 mg/m^2 days 1, 8, 15, 7 subjects, 20 cycles): 1
- adverse event in one Regimen 2 subject ([5]; one subject: docetaxel 35 mg/m^2 day 1 and 80 mg twice per day first seven days, then reduced schedule): grade 1 white blood cell decrease
- IC50 [6]: 99 nM
- inhibition of endothelial recruitment (endothelial cells): ~50%
- inhibition of 1A1 (1A1): very weakly inhibited
- induction of CYP1A2 (CYP1A2): did not induce
- inhibition at 50 µM (OCT2): < 50%
- inhibition at 50 µM (OAT3): < 50%
- ApoE gene expression induction (ApoE [7]): up to 40 fold
- dose-limiting toxicity (DLT) ([8]; single agent therapy): DLT of Grade 4 neutropenia
- hyperlipidemia in treated subjects ([8]; subjects treated): hyperlipidemia has been observed
